Assays:
Assay type in all cases: in vivo
[1] = tested on: Surinam grass (Brachiaria decumbens); experiment: Test C postemergence
Method in brief: (§1)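 Preemergence: seeds sown then treated. Postemergence: plants 2–18 cm, 1- to 4-leaf. Both with surfactant-containing solvent formulation; visual injury scored 0–100 after 12–14 d.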

[2] = tested on: bermudagrass (Cynodon dactylon); experiment: Test C postemergence
Method in brief: as §1

[3] = tested on: cocklebur (Xanthium strumarium); experiment: Test C postemergence
Method in brief: as §1

[4] = tested on: common ragweed (Ambrosia elatior); experiment: Test C postemergence
Method in brief: as §1

corn (Zea mays) = experiment: Test C postemergence
Method in brief: as §1

[5] = tested on: crabgrass (Digitaria sanguinalis); experiment: Test C postemergence
Method in brief: as §1

[6] = tested on: giant foxtail (Setaria faberii); experiment: Test C postemergence
Method in brief: as §1

[7] = tested on: goosegrass (Eleusine indica); experiment: Test C postemergence
Method in brief: as §1

[8] = tested on: johnsongrass (Sorghum halepense); experiment: Test C postemergence
Method in brief: as §1

kochia (Kochia scoparia) = experiment: Test C postemergence
Method in brief: as §1

[9] = tested on: lambsquarters (Chenopodium album); experiment: Test C postemergence
Method in brief: as §1

[10] = tested on: morningglory (Ipomoea hederacea); experiment: Test C postemergence
Method in brief: as §1

[11] = tested on: pigweed (Amaranthus retroflexus); experiment: Test C postemergence
Method in brief: as §1

soybean (Glycine max) = experiment: Test C postemergence
Method in brief: as §1

[12] = tested on: velvetleaf (Abutilon theophrasti); experiment: Test C postemergence
Method in brief: as §1

[13] = tested on: woolly cupgrass (Eriochloa villosa); experiment: Test C postemergence
Method in brief: as §1

[14] = tested on: yellow nutsedge (Cyperus esculentus); experiment: Test C postemergence
Method in brief: as §1

Sunflower [15] = experiment: Test C preemergence; conditions: Rate 500 g/ha, visual evaluation after 12 to 14 days
Sunflower [16] = experiment: Test C preemergence; conditions: Rate 250 g/ha, scale 0 to 100, 0 no effect, 100 complete control
Sunflower [17] = experiment: Test C preemergence; conditions: Rate 62 g/ha, scale 0 to 100
[18] = tested on: chickweed (Stellaria media); experiment: Test C postemergence; conditions: Rate 125 g/ha, scale 0 to 100, 0 no effect, 100 complete control
Method in brief: as §1

[19] = Rate 125 g/ha, scale 0 to 100, 0 no effect, 100 complete control
[20] = Rate 250 g/ha, scale 0 to 100 (0 no effect, 100 complete control)
[21] = Rate 500 g/ha, scale 0 to 100 (0 no effect, 100 complete control)

Structure (SMILES): COc1cc(N2CCC(n3ccc(C(C)(C)C)n3)C2=O)ccc1Cl (stereo not drawn) [Compound 117]
- Plant response rating, Surinam grass ([1]; Rate 62 g/ha, scale 0 to 100): 0
- Plant response rating, Surinam grass [1, 19]: 0
- Plant response rating, Surinam grass [1, 20]: 0
- Plant response rating, Surinam grass [1, 21]: 15
- Plant response rating, Bermudagrass ([2]; Rate 62 g/ha, scale 0 to 100): 0
- Plant response rating, Bermudagrass [2, 19]: 50
- Plant response rating, Bermudagrass [2, 20]: 50
- Plant response rating, Bermudagrass [2, 21]: 95
- Plant response rating, Cocklebur ([3]; Rate 62 g/ha, scale 0 to 100): 0
- Plant response rating, Cocklebur [3, 20]: 85
- Plant response rating, Cocklebur [3, 21]: 100
- Plant response rating, Ragweed, Common [4, 21]: 90
- Plant response rating, Corn (corn (Zea mays); Rate 62 g/ha, scale 0 to 100): 0
- Plant response rating, Corn (corn (Zea mays); [20]): 0
- Plant response rating, Corn (corn (Zea mays); [21]): 10
- Plant response rating, Corn (corn (Zea mays); scale 0 to 100): 0
- Plant response rating, Crabgrass ([5]; Rate 62 g/ha, scale 0 to 100): 0
- Plant response rating, Crabgrass [5, 20]: 10
- Plant response rating, Crabgrass [5, 21]: 10
- Plant response rating, Foxtail, Giant ([6]; Rate 62 g/ha, scale 0 to 100): 0
- Plant response rating, Foxtail, Giant [6, 20]: 30
- Plant response rating, Foxtail, Giant [6, 21]: 60
- Plant response rating, Goosegrass ([7]; Rate 62 g/ha, scale 0 to 100): 10
- Plant response rating, Goosegrass [7, 20]: 70
- Plant response rating, Goosegrass [7, 21]: 100
- Plant response rating, Johnsongrass ([8]; Rate 62 g/ha, scale 0 to 100): 0
- Plant response rating, Johnsongrass [8, 20]: 0
- Plant response rating, Johnsongrass [8, 21]: 0
- Plant response rating, Johnsongrass ([8]; rate not given, scale 0 to 100): 0
- Plant response rating, Kochia (kochia (Kochia scoparia); Rate 62 g/ha, scale 0 to 100): 80
- Plant response rating, Kochia (kochia (Kochia scoparia); [20]): 85
- Plant response rating, Kochia (kochia (Kochia scoparia); [21]): 90
- Plant response rating, Lambsquarters ([9]; Rate 62 g/ha, scale 0 to 100): 75
- Plant response rating, Lambsquarters [9, 20]: 95
- Plant response rating, Lambsquarters [9, 21]: 100
- Plant response rating, Morningglory ([10]; Rate 62 g/ha, scale 0 to 100): 100
- Plant response rating, Morningglory [10, 20]: 100
- Plant response rating, Morningglory [10, 21]: 100
- Plant response rating, Pigweed ([11]; Rate 62 g/ha, scale 0 to 100): 60
- Plant response rating, Pigweed [11, 20]: 90
- Plant response rating, Pigweed [11, 21]: 100
- Plant response rating, Soybean (soybean (Glycine max); Rate 62 g/ha, scale 0 to 100): 50
- Plant response rating, Soybean (soybean (Glycine max); [20]): 85
- Plant response rating, Soybean (soybean (Glycine max); [21]): 90
- Plant response rating, Velvetleaf ([12]; Rate 62 g/ha, scale 0 to 100): 20
- Plant response rating, Velvetleaf [12, 20]: 35
- Plant response rating, Velvetleaf [12, 21]: 60
- Plant response rating, Velvetleaf ([12]; scale 0 to 100): 35
- Plant response rating, Cupgrass, Woolly ([13]; Rate 62 g/ha, scale 0 to 100): 0
- Plant response rating, Cupgrass, Woolly [13, 20]: 40
- Plant response rating, Cupgrass, Woolly [13, 21]: 45
- Plant response rating, Nutsedge ([14]; Rate 62 g/ha, scale 0 to 100): 0
- Plant response rating, Nutsedge [14, 20]: 0
- Plant response rating, Nutsedge [14, 21]: 0
- Plant response rating (0 to 100), Sunflower (Sunflower [15]): 65
- Plant response rating, Sunflower (Sunflower [16]): 60
- Plant response rating, Sunflower (Sunflower [17]): 35

Structure (SMILES): CCC(C)c1ccn(C2CCN(c3ccc(Br)c(OC)c3)C2=O)n1 (stereo not drawn) [Compound 142]
- Plant response rating, Surinam grass ([1]; Rate 62 g/ha, scale 0 to 100): 20
- Plant response rating, Surinam grass [1, 19]: 30
- Plant response rating, Surinam grass [1, 20]: 30
- Plant response rating, Surinam grass [1, 21]: 30
- Plant response rating, Bermudagrass ([2]; Rate 62 g/ha, scale 0 to 100): 30
- Plant response rating, Bermudagrass [2, 19]: 40
- Plant response rating, Bermudagrass [2, 20]: 60
- Plant response rating, Bermudagrass [2, 21]: 80
- Plant response rating, Chickweed [18]: 100
- Plant response rating, Cocklebur ([3]; Rate 62 g/ha, scale 0 to 100): 30
- Plant response rating, Cocklebur [3, 20]: 90
- Plant response rating, Cocklebur [3, 21]: 90
- Plant response rating, Ragweed, Common ([4]; Rate 62 g/ha, scale 0 to 100): 50
- Plant response rating, Ragweed, Common [4, 20]: 90
- Plant response rating, Ragweed, Common [4, 21]: 100
- Plant response rating, Corn (corn (Zea mays); Rate 62 g/ha, scale 0 to 100): 0
- Plant response rating, Corn (corn (Zea mays); [20]): 0
- Plant response rating, Corn (corn (Zea mays); [21]): 20
- Plant response rating, Corn (corn (Zea mays); scale 0 to 100): 0
- Plant response rating, Crabgrass ([5]; Rate 62 g/ha, scale 0 to 100): 40
- Plant response rating, Crabgrass [5, 20]: 70
- Plant response rating, Crabgrass [5, 21]: 70
- Plant response rating, Foxtail, Giant ([6]; Rate 62 g/ha, scale 0 to 100): 90
- Plant response rating, Foxtail, Giant [6, 20]: 90
- Plant response rating, Foxtail, Giant [6, 21]: 90
- Plant response rating, Goosegrass ([7]; Rate 62 g/ha, scale 0 to 100): 30
- Plant response rating, Goosegrass [7, 20]: 50
- Plant response rating, Goosegrass [7, 21]: 70
- Plant response rating, Johnsongrass ([8]; Rate 62 g/ha, scale 0 to 100): 20
- Plant response rating, Johnsongrass [8, 20]: 30
- Plant response rating, Johnsongrass [8, 21]: 30
- Plant response rating, Johnsongrass ([8]; rate not given, scale 0 to 100): 30
- Plant response rating, Kochia (kochia (Kochia scoparia); Rate 62 g/ha, scale 0 to 100): 40
- Plant response rating, Kochia (kochia (Kochia scoparia); [20]): 90
- Plant response rating, Kochia (kochia (Kochia scoparia); [21]): 90
- Plant response rating, Lambsquarters ([9]; Rate 62 g/ha, scale 0 to 100): 80
- Plant response rating, Lambsquarters [9, 20]: 100
- Plant response rating, Lambsquarters [9, 21]: 100
- Plant response rating, Morningglory ([10]; Rate 62 g/ha, scale 0 to 100): 20
- Plant response rating, Morningglory [10, 20]: 100
- Plant response rating, Morningglory [10, 21]: 100
- Plant response rating, Pigweed ([11]; Rate 62 g/ha, scale 0 to 100): 80
- Plant response rating, Pigweed [11, 20]: 90
- Plant response rating, Pigweed [11, 21]: 90
- Plant response rating, Soybean (soybean (Glycine max); Rate 62 g/ha, scale 0 to 100): 60
- Plant response rating, Soybean (soybean (Glycine max); [20]): 90
- Plant response rating, Soybean (soybean (Glycine max); [21]): 90
- Plant response rating, Velvetleaf ([12]; Rate 62 g/ha, scale 0 to 100): 50
- Plant response rating, Velvetleaf [12, 20]: 80
- Plant response rating, Velvetleaf [12, 21]: 80
- Plant response rating, Velvetleaf ([12]; scale 0 to 100): 70
- Plant response rating, Cupgrass, Woolly ([13]; Rate 62 g/ha, scale 0 to 100): 40
- Plant response rating, Cupgrass, Woolly [13, 20]: 50
- Plant response rating, Cupgrass, Woolly [13, 21]: 70
- Plant response rating, Nutsedge ([14]; Rate 62 g/ha, scale 0 to 100): 0
- Plant response rating, Nutsedge [14, 20]: 0
- Plant response rating, Nutsedge [14, 21]: 20
- Plant response rating (0 to 100), Sunflower (Sunflower [15]): 80
- Plant response rating, Sunflower (Sunflower [16]): 80
- Plant response rating, Sunflower (Sunflower [17]): 10
